Measured values from patent publication US20240050442A1, “TRIMEPRAZINE DERIVATIVES AND COMPOSITIONS COMPRISING THE SAME FOR TREATING A NEUROPSYCHIATRIC DISORDER” (CENTRE NATIONAL DE LA RECHERCHE SCIENTIFIQUE, priority 2020, published 2024).

Tests used:
Assay type in all cases: in vivo
[1] = system: Fmr1-KO mice; assay: Social interaction test; conditions: 28-30 post-natal days, 0.25 mg/kg BW intraperitoneal
Procedure: The experiments were performed following the ARRIVE (Animals in Research: Reporting In Vivo Experiments) guidelines. Fmr1-knockout (KO) and WT mice on a C57BL/6J congenic background were obtained from Prof. R. Willemsen. All animals were generated and housed in groups of 4 in standard laboratory conditions (22° C., 55±10% humidity, 12-h light/12-h dark diurnal cycles) with food and water provided ad libitum. Experimental testing was performed between 12:00 and 16:30 each day during the 12-h light period. Only male mice and rats were used. Animal care was conducted in accordance with the European Community Directive 2010/63/EU. The experiments were approved by the local ethics committee (Comité d'Ethique en Expérimentation Animale, by the French Ministry of Research. Trimeprazine and opipramol were purchased from Prestwich Library. Both molecules were diluted in DMSO at the stock concentration of 100 mM. All compounds injected intraperitoneally were administered in a volume of 1.5 ml per kg body weight at the amount indicated in the legends of each figure. Social Interaction Test: The 28-30-day-old mice were individually habituated to the experimental apparatus (a Plexiglas cage measuring 30×30×30 cm) for 5 min the day before testing. On the test day, the animals were isolated for 2 h before testing, to enhance their social motivation and thus facilitate the expression of social interaction during testing. The test consisted of placing 2 animals (same treatment and weight) into the test cage for 10 min. The behaviour of the animals was recorded using a video camera with zoom lens, DVD recorder and LCD monitor. Behaviour was assessed per single animal and analyzed by a trained observer who was unaware of genotype and treatment conditions using the Observer XT software (Noldus, The Netherlands). The following parameters were scored: a. Social Activities: • 1. Social sniffing: sniffing any part of the body of the partner, including the anogenital area. • 2. Following: moving in the direction of or pursuing the partner, who moves away. • 3. Mutual circle: partners are mutually sniffing each other's anogenital region, while describing tight circles with their reciprocal following movements. • 4. Pushing past: the focal animal passes between the wall of the cage and the body of the partner by pushing its own body through the narrow space available. • 5. Crawling under/over: the focal animal crawls underneath or over the partner's body, crossing it transversely from one side to the other. • 6. Social grooming: chewing and licking the fur of the partner. • 7. Social rest: the focal animal is being groomed by the partner. • 8. […] The average frequency of total social activities, quantified as number of events during the 10 min testing session, was graphed.

[2] = system: Fmr1-KO mice; assay: Homing behaviour test (social discrimination, cognition); conditions: 13 post-natal days; for latency time (homing test): 0.175 mg/kg BW intraperitoneal, FIG. 2A
Procedure: The experiments were performed following the ARRIVE (Animals in Research: Reporting In Vivo Experiments) guidelines. Fmr1-knockout (KO) and WT mice on a C57BL/6J congenic background were obtained from Prof. R. Willemsen. All animals were generated and housed in groups of 4 in standard laboratory conditions (22° C., 55±10% humidity, 12-h light/12-h dark diurnal cycles) with food and water provided ad libitum. Experimental testing was performed between 12:00 and 16:30 each day during the 12-h light period. Only male mice and rats were used. Animal care was conducted in accordance with the European Community Directive 2010/63/EU. The experiments were approved by the local ethics committee (Comité d′Ethique en Expérimentation Animale, by the French Ministry of Research. Trimeprazine and opipramol were purchased from Prestwich Library. Both molecules were diluted in DMSO at the stock concentration of 100 mM. All compounds injected intraperitoneally were administered in a volume of 1.5 ml per kg body weight at the amount indicated in the legends of each figure. Homing Behaviour Test: At PND 13, the litter was separated from the dam and kept for 30 min in a temperature-controlled holding cage. Then, each mouse pup was placed into a Plexiglas box whose floor was covered for ⅓ with bedding from the pup's home cage and for ⅔ with clean bedding. The pup was located at the side of the box covered by clean bedding, and its behaviour was videorecorded for 4 min for subsequent analysis. The following parameters were scored using the Observer 3.0 software (Noldus Information Technology): latency (s) to reach the home-cage bedding area; total time (s) spent by the pup in the nest bedding area.

[3] = system: Fmr1-KO mice; assay: Novel object recognition test (working memory)
Procedure: The experiments were performed following the ARRIVE (Animals in Research: Reporting In Vivo Experiments) guidelines. Fmr1-knockout (KO) and WT mice on a C57BL/6J congenic background were obtained from Prof. R. Willemsen. All animals were generated and housed in groups of 4 in standard laboratory conditions (22° C., 55±10% humidity, 12-h light/12-h dark diurnal cycles) with food and water provided ad libitum. Experimental testing was performed between 12:00 and 16:30 each day during the 12-h light period. Only male mice and rats were used. Animal care was conducted in accordance with the European Community Directive 2010/63/EU. The experiments were approved by the local ethics committee (Comité d′Ethique en Expérimentation Animale, by the French Ministry of Research. Trimeprazine and opipramol were purchased from Prestwich Library. Both molecules were diluted in DMSO at the stock concentration of 100 mM. All compounds injected intraperitoneally were administered in a volume of 1.5 ml per kg body weight at the amount indicated in the legends of each figure. On day 1 and 2, mice were habituated for 10 min to the maze in which the task was performed. On the third day, mice were put back in the maze for 10 min, two identical objects were presented and the time that the mice spent exploring each object was recorded. The mice were again placed in the maze 5 minutes later for 10 min, one of the familiar objects was replaced with a novel object and the total time spent exploring each of the two objects (novel and familiar) was computed. Object exploration was defined as the orientation of the nose to the object at a distance of less than 2 cm. A discrimination index was calculated as the difference between the times spent exploring either the novel or familiar object divided by the total time exploring the two objects. A higher discrimination index is considered to reflect greater memory retention for the familiar object. Pharmacological treatment with SM2 and SM4 was performed 30 minutes before training.

[4] = Fmr1-KO adolescent mice, acute treatment

## OCCN1CCN(CCCN2c3ccccc3C=Cc3ccccc32)CC1 [SM2, opipramol]
[1]; [4]
  number of social interactions: does not have a beneficial impact
[1]; WT adolescent mice
  number of social interactions: has a negative impact
[2]; Fmr1-KO infant mice
  latency time (homing test): does not have a beneficial impact
[2]; WT infant mice
  latency time (homing test): has a negative impact
[3]; Fmr1-KO adult mice 8 weeks, 0.18 mg/kg BW intraperitoneal 30 minutes before training, FIG. 3B
  discrimination index: not normalized
[3]; WT adult mice 8 weeks, 0.18 mg/kg BW intraperitoneal 30 minutes before training, FIG. 3B
  discrimination index: worsened the behaviour

## CC(CN(C)C)CN1c2ccccc2Sc2ccccc21 (centres unmarked) [SM4, Trimeprazine]
[1]; [4]
  number of social interactions: normalized
[1]; WT adolescent mice
  number of social interactions: does not modify the social interaction behaviour
[2]; Fmr1-KO infant mice, 0.25 mg/kg BW intraperitoneal, FIG. 1A
  latency time (time the mouse pups need to find the mother's litter): normalized
[3]; Fmr1-KO adult mice 8 weeks, 0.3 mg/kg BW intraperitoneal 30 minutes before training, FIG. 3A
  discrimination index: Discrimination index is the same in treated WT and Fmr-KO mice
[3]; WT adult mice 8 weeks, 0.3 mg/kg BW intraperitoneal 30 minutes before training, FIG. 3A
  discrimination index: has no impact on the behaviour
